Measurements as given in article PMC9506420, “Biological Evaluation of 3-Azaspiro[Bicyclo[3.1.0]Hexane-2,5′-Pyrimidines] as Potential Antitumor Agents” (International Journal of Molecular Sciences, 2022).

Columns and labels:
HeLa cells [1] = test: Scratch test of cell motility, HeLa; assay type: cell-based, human; settings: 10 μg/mL, 24 h, serum-free, nontreated 29.3 ± 2.0%
Procedure: To evaluate the ability of tested adducts to inhibit cell-motility-associated metastasis, a scratch test was performed on the HeLa, CT26, and Vero cell lines. The results are shown in Figure 11, Figure 12 and Figure 13. Nontreated HeLa cells filled the scratched strip at 29.3 ± 2.0%, while cells filled 10.4 ± 1.8%, 11.2 ± 1.1%, 20.2 ± 2.9%, 4.8 ± 1.9%, and 11.7 ± 1.8% of the scratched strip under treatment with adducts 4d, 4e, 4f, 4h, and 4i, respectively (Figure 11).
Cells were seeded onto Petri dishes at a density of 5 × 10^5 cells per dish and grown to confluency. Scratch wounds were made with a 200 μL pipette tip, after which detached cells were removed by washing with phosphate-buffered saline. In order to inhibit cell proliferation, culture media was replaced to serum-free DMEM. Compounds 4d, 4e, 4f, […] were added to the cultures at a dose of 10 μg/mL and incubated for 24 h. After that, the cells were stained with Hoechst 33,342 (Thermo Fisher Scientific, Waltham, MA, USA), by adding 2 μL of 1 mg/mL stock solution to 2 mL of medium and DIBAC4 (3) (Thermo Fisher Scientific, Waltham, MA, USA) at the same dose. Images were captured using confocal microscope (Axio Observer Z1, Carl Zeiss MicroImaging GmbH, Jena, Germany). The percentage of wound closure in five randomly chosen fields was calculated with NIH ImageJ software.

HeLa cells [2] = test: Actin cytoskeleton staining (rhodamine-phalloidin, confocal microscopy), HeLa; assay type: cell-based, human; settings: 5 μg/mL, 24 h
Procedure: (§1) Therefore, in the current study, the actin cytoskeleton structure of HeLa, CT26, and Vero cells was analyzed, after the impact of compounds 4a–i, by the presence of filopodia-like protrusions and the availability of stress fibers (Figure 14, Figure 15 and Figure 16). […] HeLa cells were more sensitive to the action of tested products, compared to CT26 and Vero cells.
(§2) Cells were seeded onto Petri dishes with cover slips at a density of 2 × 10^5 cells per dish and incubated for 24 h. After that, cells were treated with compounds 4d, 4e, 4f, 4h, and 4i (5 μg/mL) for 24 h. The medium was removed, and cells were fixed with 4% paraformaldehyde (Sigma-Aldrich, St. Louis, MO, USA), washed three times with PBS, and permeabilized with 0.3% Triton-X100 (Sigma-Aldrich, St. Louis, MO, USA). The cells were rinsed three times with PBS. Actin filaments (microfilaments) were stained at 37 °C for 15 min with rhodamine-phalloidin (Invitrogen, Carlsbad, CA, USA). The samples were rinsed three times with PBS, followed by embedding in Fluoroshield medium (Sigma-Aldrich, St. Louis, MO, USA). Cells were imaged using an Axio Observer Z1 confocal microscope (Carl Zeiss MicroImaging GmbH, Jena, Germany). In each experiment, at least 30 cells were imaged. Images were analyzed by a pathologist, blinded to the treatment mode used for each group, using ImageJ software.

CT26 cells = test: Actin cytoskeleton staining (rhodamine-phalloidin, confocal microscopy), CT26; assay type: cell-based, mouse; settings: CT26, 5 μg/mL, 24 h; for percentage of cells with normal stress fibers (C): control 64%
Procedure: as §1, §2

| Structure (SMILES) | scratched strip filled by cells (HeLa cells [1]) | percentage of cells with normal stress fibers (C) (HeLa cells [2]; control 80%) | percentage of cells with filopodia-like deformations (A) (HeLa cells [2]; control 91%) | percentage of cells with normal stress fibers (C) (CT26 cells) | percentage of cells with filopodia-like deformations (A) (CT26 cells; control 43%) |
| --- | --- | --- | --- | --- | --- |
| CCC[C@@H]1NC2(C(=O)NC(=O)NC2=O)[C@]2(c3ccccc3)[C@@H](c3ccccc3)[C@]12c1ccccc1 [Compound 4d] | 10.4 ± 1.8% |  |  |  |  |
| CC(C)C[C@@H]1NC2(C(=O)NC(=O)NC2=O)[C@]2(c3ccccc3)[C@@H](c3ccccc3)[C@]12c1ccccc1 [Compound 4f] | 20.2 ± 2.9% | 10% | 35% |  |  |
| CSCC[C@@H]1NC2(C(=O)NC(=O)NC2=O)[C@]2(c3ccccc3)[C@@H](c3ccccc3)[C@]12c1ccccc1 [Compound 4h] | 4.8 ± 1.9% |  |  | 36% |  |
| O=C1NC(=O)C2(N[C@@H](c3ccccc3)[C@@]3(c4ccccc4)[C@H](c4ccccc4)[C@@]23c2ccccc2)C(=O)N1 [Compound 4i] | 11.7 ± 1.8% |  |  | 38% | 38% |
| CCCC[C@@H]1NC2(C(=O)NC(=O)NC2=O)[C@]2(c3ccccc3)[C@@H](c3ccccc3)[C@]12c1ccccc1 [Compound 4e] | 11.2 ± 1.1% |  |  |  |  |
